Here are results for 7 compounds from US20050020559A1, “Chlorin photosensitizing agents for use in photodynamic therapy” (priority 2001, published 2005).

SMILES strings stand for the structures.

The test system of one assay is corneal neovessels. Nature of the assay: Experimentally induced corneal neovascularization (N-heptanol scrub): PDT closure of corneal neovessels, fluorescein angiography out to 28 days. It counts as in vivo, Sprague Dawley rats. Conditions: corneal neovessels induced by n-heptanol scrub, rats; light dose 20 J/cm^2 at optimal excitation wavelength; optimal drug dose and time interval per compound; grade by corneal fluorescein angiography (neovessel-free area). On the procedure:
The chlorin e6molecules were evaluated in a series of preclinical ocular neovessel models, corneal neovascularization, normal choriocapillaris vessels, and choroidal neovascularization. […] The chemical scrub was used to remove the corneal epithelium and stem cells, allowing the neovessels to grow across the entire cornea. PDT was performed at approximately 3 weeks after the chemical scrub when the neovessels formed a uniform network across the cornea. The PDT treatment was applied to the corneal surface with a laser wavelength that was optimized for the given absorption spectrum. The laser energy was coupled through a slit lamp biomicroscope with a slit lamp adapter. A 3.0 mm spot size was used (Area=7.07 mm^2). The light dose delivered was varied from 5-25 J/cm^2. The efficacy of neovessel closure was evaluated by measuring the area of treated cornea that remained neovessel-free out to 28 days following PDT. Accurate area measurements were taken using fluorescein angiography and measuring the area of neovessel-free cornea.

The next assay relates to choriocapillaris. As to the kind of experiment: Normal choriocapillaris rabbit model: PDT vessel closure out to 28 days, fluorescein angiography. It counts as in vivo. To be noted: pigmented rabbit, intravenous, light dose 20 J/cm^2, optimal drug dose and time interval per compound, grade by fluorescein angiography. On the procedure: The chlorin e6molecules were evaluated in a series of preclinical ocular neovessel models, corneal neovascularization, normal choriocapillaris vessels, and choroidal neovascularization.
Selected chlorin e6 molecules were also evaluated in a normal choriocapillaris model in the pigmented rabbit. […] The selected photosensitizers were administered intravenously at varying drug doses, the light dose was set constant at 20 J/cm^2, and the time interval was varied from 5-30 minutes between drug and light administration. Two PDT treatment areas were placed on the fundus of each eye in each rabbit. Fluorescein angiography was used to evaluate vessel closure following PDT out to 28 days.

The test system of assay [1] is choroidal neovascularization lesions. As to the kind of experiment: Laser-induced choroidal neovascularization (CNV) model: PDT closure of CNV lesions, fluorescein angiography and histopathology. It counts as in vivo, rats. On the procedure:
Two of the chlorin e6molecules, (39) and (106), were evaluated in a laser-induced choroidal neovascularization (CNV) model in rats. Laser photocoagulation was used to stimulate choroidal neovessel growth on the fundus of the rat (E. T. Dobi, C. Puliafito, M. A. Destro, “A new model of experimental choroidal neovascularization in the rat”, Arch. Ophthalmol. 1989; 107: 264-269). The PDT treatments were performed approximately 4 weeks after the laser photocoagulation, which was when the choroidal neovascularization lesions were fully developed. The lesions were PDT treated using a 1.2 mm spot which covered the entire CNV lesion. Fluorescein angiography and histopathology were used to evaluate the CNV closure.

Take `C=Cc1c(C)c2cc3nc(c(CC(=O)OC)c4[nH]c(cc5nc(cc1[nH]2)C(C)=C5CC)c(C)c4C(=O)NCCCO)C(CCC(=O)OC)C3C` (centres unmarked) [Compound 30, 3-[[(3-hydroxypropyl)amino]carbonyl]-13-ethenyl-18-ethyl-7,8-dihydro-5-(2-methoxy-2-oxoethyl)-2,8,12,17-tetramethyl-21H, 23H-Porphine-7-propionic acid, methyl ester]: in the assay with corneal neovessels, the “Extent of neovessel closure at 28 days after treatment” value (shortened to “Extent of neovessel closure”) was 2 (2 = 1.1-2.0 mm^2). In addition, the “Closure at 28 Days” value in the assay with choriocapillaris was 3 (3 = 51-75%).

Consider `C=Cc1c(C)c2cc3nc(c(CC(=O)OC)c4[nH]c(cc5nc(cc1[nH]2)C(C)=C5CC)c(C)c4C(=O)NCCCOC(C)=O)C(CCC(=O)OC)C3C` (centres unmarked) [Compound 34, 3-[[(3-acetoxypropyl)amino]carbonyl]-13-ethenyl-18-ethyl-7,8-dihydro-5-(2-methoxy-2-oxoethyl)-2,8,12,17-tetramethyl-21H, 23H-Porphine-7-propionic acid, methyl ester], for which, in the assay with corneal neovessels, the “Extent of neovessel closure” value is 1 (1 = 0.21-1.0 mm^2). Moreover, the “Closure at 28 Days” value with choriocapillaris was 3 (3 = 51-75%).

For the compound `C=Cc1c(C)c2cc3nc(c(CC(=O)OC)c4[nH]c(cc5nc(cc1[nH]2)C(C)=C5CC)c(C)c4C(=O)NCCOCCO)C(CCC(=O)OC)C3C` (centres unmarked) [Compound 39, 3-[[(5-hydroxy-3-oxa-pentyl)amino]carbonyl]-13-ethenyl-18-ethyl-7,8-dihydro-5-(2-methoxy-2-oxoethyl)-2,8,12,17-tetramethyl-21H, 23H-Porphine-7-propionic acid, methyl ester], the “Extent of neovessel closure” value in the assay on corneal neovessels is listed as 1 (1 = 0.21-1.0 mm^2). Moreover, the “CNV closure (fluorescein angiography)” value in assay [1] (0.8 & 1.6 μmoles/kg, 10-20 minutes time interval post injection, 7 days after PDT) is “closed the CNV lesion”. The “Closure at 28 Days” value with choriocapillaris is given as 4 (4 > 75%).

Take `C=Cc1c(C)c2cc3nc(c(CCO)c4[nH]c(cc5nc(cc1[nH]2)C(C)=C5CC)c(C)c4C(=O)NCCOCCO)C(CCCO)C3C` (centres unmarked) [Compound 43, 7-(3-hydroxypropyl)-3-[[(5-hydroxy-3-oxa-pentyl)amino]carbonyl]-13-ethenyl-18-ethyl-7,8-dihydro-5-(2-hydroxyethyl)-2,8,12,17-tetramethyl-21H, 23H-Porphine]: in the assay with corneal neovessels, the “Extent of neovessel closure” value is given as 1 (1 = 0.21-1.0 mm^2).

In the case of `C=Cc1c(C)c2cc3nc(c(CC(=O)OC)c4[nH]c(cc5nc(cc1[nH]2)C(C)=C5CC)c(C)c4C(=O)NCCOCCOC(C)=O)C(CCC(=O)OC)C3C` (centres unmarked) [Compound 45, 3-[[(5-acetoxy-3-oxa-pentyl)amino]carbonyl]-13-ethenyl-18-ethyl-7,8-dihydro-5-(2-methoxy-2-oxoethyl)-2,8,12,17-tetramethyl-21H, 23H-Porphine-7-propionic acid, methyl ester], the “Extent of neovessel closure” value with corneal neovessels is 1 (1 = 0.21-1.0 mm^2). Moreover, the “Closure at 28 Days” value in the assay with choriocapillaris is listed as 3 (3 = 51-75%).

With `CCC1=C(C)c2cc3[nH]c(cc4nc(c(CC(=O)OC)c5[nH]c(cc1n2)c(C)c5C(=O)NCCCO)C(CCC(=O)OC)C4C)c(C)c3C(C)=O` (centres unmarked) [Compound 101, 3-[[(3-hydroxypropyl]amino]carbonyl]-13-acetyl-18-ethyl-7,8-dihydro-5-(2-methoxy-2-oxoethyl)-2,8,12,17-tetramethyl-21H, 23H-Porphine-7-propionic acid, methyl ester], the “Extent of neovessel closure” value in the assay with corneal neovessels is 0 (0 = 0-0.2 mm^2).

With `CCC1=C(C)c2cc3[nH]c(cc4nc(c(CC(=O)OC)c5[nH]c(cc1n2)c(C)c5C(=O)NCCOCCO)C(CCC(=O)OC)C4C)c(C)c3C(C)=O` (centres unmarked) [Compound 106, 3-[[(5-hydroxy-3-oxa-pentyl)amino]carbonyl]-13-acetyl-18-ethyl-7,8-dihydro-5-(2-methoxy-2-oxoethyl)-2,8,12,17-tetramethyl-21H, 23H-Porphine-7-propionic acid, methyl ester], in the assay with corneal neovessels, the “Extent of neovessel closure” value is 1 (1 = 0.21-1.0 mm^2). Also, in assay [1] (0.75 μmoles/kg, 20 minutes time interval post injection, 7 days post PDT), the “CNV closure (fluorescein angiography)” value is reported as “demonstrated CNV closure”. Further, in the assay on choriocapillaris, the “Closure at 28 Days” value is 4 (4 > 75%).
